{"source": "paper PMC7270110", "about": "“Labeled oxytocin administered via the intranasal route reaches the brain in rhesus macaques” (Nature Communications, 2020)", "test": "Brain tissue concentration of endogenous OT (d0OT) by LC-MS/MS (terminal experiment)", "format": "in vivo, rhesus macaques (Macaca mulatta)", "conditions": "for BRAIN OT concentration (endogenous): LC-MS/MS; for Concentrations of endogenous brain oxytocin (OT): molarity calculated for extracellular fluid volume", "method": "Monkeys were divided into three groups, each with two monkeys; each group received the following in a terminal study at the 5th week: Group 1 (Monkeys ID# 1 and ID# 5) received 40 IU of d5OT IN, Group 2 received 80 IU of d5OT IN (Monkeys ID# 2 and ID# 4) and Group 3 received 80 IU of d5OT IV (Monkeys ID# 3 and ID# 6). Animals were perfused on average, 140 ± 7 (mean ± SD) min after d5OT administration (range = 135–149 min) (Table 4). Plasma and CSF were drawn just before administration of d5OT, at the midpoint between d5OT administration and perfusion (~60 min post-d5OT administration), and just before perfusion.\nBrain tissue distribution of d5OT, as well as the endogenous concentrations of OT (d0OT), were measured in the following 12 brain regions: cerebellum, brainstem, striatum, amygdala, thalamus, visual cortex, insular cortex, hypothalamus, hippocampus, mPFC (Brodmann areas 32,25,24), dPFC (Brodmann areas 46,9,10), and OFC (Brodmann areas 14,13,12) (Tables 1, 2 and 3).\nBrain tissue sample preparation: Samples (~1.5 mg per sample) were individually weighed and placed into 12 mm × 75 mm glass tubes containing 1.5 ml ice-cold 1 M acetic acid and 30 µl of OT-d10 internal standard. Tissues were homogenized on ice and the resulting homogenates were poured into individual 15 ml polystyrene tubes. The original glass tube was rinsed with 1 ml acetonitrile, and this rinse was added to the appropriate 15 ml polystyrene tube containing the homogenate. After all homogenizations were complete, 3 ml acetonitrile was added to each tube and extraction proceeded, as described for the plasma and CSF samples.\nLC–MS/MS instrument parameters: Microtiter plates were prepared, as described above, and loaded onto a SIL-30ACMP autosampler set at 4 °C (Shimadzu). Forty microliters of each standard, QC or sample were injected onto an ACE Excel 2 C18-PFP 50 mm × 2.1 mm column (Advanced Chromatography Technologies, LTD, Aberdeen, Scotland) at 50 °C using reversed-phase chromatography. Mobile phase A was 0.1% formic acid in water and mobile phase B was 0.1% formic acid in ACN. The LC time gradient was created using two Nexera LC-30AD pumps (Shimadzu) running at 0.5 ml/min. Chromatography for serum and CSF samples began at 10% B and ended at 16% B at 3.6 min. One minute at 60% B was then required to wash the column, and the pumps re-equilibrated at 10% B for an additional 1.7 min (total run time ~6 min). Outside of the 1.55–3.55 min window during which OT eluted, a divert valve sent the LC effluent to waste.\nHeated electrospray […] in positive mode, with scheduled multiple reaction monitoring (MRM) on a Shimadzu LCMS-8050, was used for detection of OT. The interface temperature was 270 °C and heat block temperature was 170 °C. Gas was supplied by a Peak Genius 1051 nitrogen and air generator (Peak Scientific, Inchinnan, UK). Nitrogen gas was used for nebulizing (1 L/min) and drying (8.2 L/min), while air was used for heating (7.8 L/min). A capillary B needle was used in the interface. Needle protrusion was set to 1.25 mm and probe distance was set to 1.0 mm; both were determined empirically. Argon (Airgas, Radnor, PA) was used for the collision-induced dissociation at 330 kPa. The MS/MS conditions for OT were optimized using the automated MRM optimization procedure in LabSolutions software (Shimadzu). We collected two MRM transitions each, for d0OT (1007.40 > 723.40 and 1007.40 > 285.30), d5OT (1012.00 > 723.40 and 1012.00 > 290.35), and d10OT (1017.70 > 723.35 and 1017.70 > 295.40); the first transition listed in each case was used for quantitation, while the second was used as a reference ion. Retention times for d0OT, d5OT, and d10OT were 3.290, 3.270, and 3.253 min, respectively.\nThe sensitivities of each assay within the method were determined by the lowest and highest concentration calibrators in the calibration curve. The lower limit of quantitation (LLOQ) for d0OT was 10 pg/ml (4 pg/col); the LLOQ for d5OT was 100 pg/ml (40 pg/col). […]", "data": [{"smiles": "CC[C@H](C)[C@@H]1NC(=O)[C@H](Cc2ccc(O)cc2)NC(=O)[C@@H](N)CSSC[C@@H](C(=O)N2CCC[C@H]2C(=O)N[C@@H](CC(C)C)C(=O)NCC(N)=O)NC(=O)[C@H](CC(N)=O)NC(=O)[C@H](CCC(N)=O)NC1=O", "note": "[OT, oxytocin]", "values": [{"measurement": "BRAIN OT concentration (endogenous)", "setting": "Insular Cortex, after d5OT 40 IU IN, monkey #5 (F), perfused 138 min post-dose", "value": 0.30, "unit": "pg/mg"}, {"measurement": "BRAIN OT concentration (endogenous)", "setting": "Insular Cortex, after d5OT 80 IU IN, monkey #4 (M), perfused 135 min post-dose", "value": 0.06, "unit": "pg/mg"}, {"measurement": "BRAIN OT concentration (endogenous)", "setting": "Insular Cortex, after d5OT 80 IU IV, monkey #3 (F), perfused 149 min post-dose", "value": 0.16, "unit": "pg/mg"}, {"measurement": "Concentrations of endogenous brain oxytocin (OT)", "setting": "OFC, 40 IN, monkey #1 (F)", "value": "1e-09", "unit": "M"}, {"measurement": "Concentrations of endogenous brain oxytocin (OT)", "setting": "OFC, 40 IN, monkey #5 (F)", "value": "5e-09", "unit": "M"}, {"measurement": "Concentrations of endogenous brain oxytocin (OT)", "setting": "OFC, 80 IN, monkey #2 (M)", "value": "2.2e-09", "unit": "M"}, {"measurement": "Concentrations of endogenous brain oxytocin (OT)", "setting": "OFC, 80 IN, monkey #4 (M)", "value": "9e-09", "unit": "M"}, {"measurement": "Concentrations of endogenous brain oxytocin (OT)", "setting": "OFC, 80 IV, monkey #3 (F)", "value": "2e-09", "unit": "M"}, {"measurement": "BRAIN OT concentration (endogenous)", "setting": "OFC, after d5OT 40 IU IN, monkey #1 (F), perfused 148 min post-dose", "value": 0.22, "unit": "pg/mg"}, {"measurement": "BRAIN OT concentration (endogenous)", "setting": "OFC, after d5OT 40 IU IN, monkey #5 (F), perfused 138 min post-dose", "value": 0.96, "unit": "pg/mg"}, {"measurement": "BRAIN OT concentration (endogenous)", "setting": "OFC, after d5OT 80 IU IN, monkey #2 (M), perfused 136 min post-dose", "value": 0.40, "unit": "pg/mg"}, {"measurement": "BRAIN OT concentration (endogenous)", "setting": "OFC, after d5OT 80 IU IN, monkey #4 (M), perfused 135 min post-dose", "value": 1.59, "unit": "pg/mg"}, {"measurement": "BRAIN OT concentration (endogenous)", "setting": "OFC, after d5OT 80 IU IV, monkey #3 (F), perfused 149 min post-dose", "value": 0.44, "unit": "pg/mg"}, {"measurement": "Concentrations of endogenous brain oxytocin (OT)", "setting": "Striatum, 40 IN, monkey #1 (F)", "value": "3e-09", "unit": "M"}, {"measurement": "Concentrations of endogenous brain oxytocin (OT)", "setting": "Striatum, 40 IN, monkey #5 (F)", "value": "7e-09", "unit": "M"}, {"measurement": "Concentrations of endogenous brain oxytocin (OT)", "setting": "Striatum, 80 IN, monkey #2 (M)", "value": "9e-09", "unit": "M"}, {"measurement": "Concentrations of endogenous brain oxytocin (OT)", "setting": "Striatum, 80 IN, monkey #4 (M)", "value": "9.7e-08", "unit": "M"}, {"measurement": "Concentrations of endogenous brain oxytocin (OT)", "setting": "Striatum, 80 IV, monkey #3 (F)", "value": "7.9e-08", "unit": "M"}, {"measurement": "Concentrations of endogenous brain oxytocin (OT)", "setting": "Striatum, 80 IV, monkey #6 (F)", "value": "8.6e-08", "unit": "M"}, {"measurement": "BRAIN OT concentration (endogenous)", "setting": "Striatum, after d5OT 40 IU IN, monkey #1 (F), perfused 148 min post-dose", "value": 0.63, "unit": "pg/mg"}, {"measurement": "BRAIN OT concentration (endogenous)", "setting": "Striatum, after d5OT 40 IU IN, monkey #5 (F), perfused 138 min post-dose", "value": 1.20, "unit": "pg/mg"}, {"measurement": "BRAIN OT concentration (endogenous)", "setting": "Striatum, after d5OT 80 IU IN, monkey #2 (M), perfused 136 min post-dose", "value": 1.58, "unit": "pg/mg"}, {"measurement": "BRAIN OT concentration (endogenous)", "setting": "Striatum, after d5OT 80 IU IN, monkey #4 (M), perfused 135 min post-dose", "value": 17.81, "unit": "pg/mg"}, {"measurement": "BRAIN OT concentration (endogenous)", "setting": "Striatum, after d5OT 80 IU IV, monkey #3 (F), perfused 149 min post-dose", "value": 14.45, "unit": "pg/mg"}, {"measurement": "BRAIN OT concentration (endogenous)", "setting": "Striatum, after d5OT 80 IU IV, monkey #6 (F), perfused 135 min post-dose", "value": 15.82, "unit": "pg/mg"}, {"measurement": "Concentrations of endogenous brain oxytocin (OT)", "setting": "Thalamus, 40 IN, monkey #1 (F)", "value": "2.4e-08", "unit": "M"}, {"measurement": "Concentrations of endogenous brain oxytocin (OT)", "setting": "Thalamus, 40 IN, monkey #5 (F)", "value": "4e-08", "unit": "M"}, {"measurement": "Concentrations of endogenous brain oxytocin (OT)", "setting": "Thalamus, 80 IN, monkey #2 (M)", "value": "6e-09", "unit": "M"}, {"measurement": "Concentrations of endogenous brain oxytocin (OT)", "setting": "Thalamus, 80 IN, monkey #4 (M)", "value": "1.7e-08", "unit": "M"}, {"measurement": "Concentrations of endogenous brain oxytocin (OT)", "setting": "Thalamus, 80 IV, monkey #3 (F)", "value": "2.1e-08", "unit": "M"}, {"measurement": "Concentrations of endogenous brain oxytocin (OT)", "setting": "Thalamus, 80 IV, monkey #6 (F)", "value": "1.55e-07", "unit": "M"}, {"measurement": "BRAIN OT concentration (endogenous)", "setting": "Thalamus, after d5OT 40 IU IN, monkey #1 (F), perfused 148 min post-dose", "value": 4.39, "unit": "pg/mg"}, {"measurement": "BRAIN OT concentration (endogenous)", "setting": "Thalamus, after d5OT 40 IU IN, monkey #5 (F), perfused 138 min post-dose", "value": 7.31, "unit": "pg/mg"}, {"measurement": "BRAIN OT concentration (endogenous)", "setting": "Thalamus, after d5OT 80 IU IN, monkey #2 (M), perfused 136 min post-dose", "value": 1.02, "unit": "pg/mg"}, {"measurement": "BRAIN OT concentration (endogenous)", "setting": "Thalamus, after d5OT 80 IU IN, monkey #4 (M), perfused 135 min post-dose", "value": 3.09, "unit": "pg/mg"}, {"measurement": "BRAIN OT concentration (endogenous)", "setting": "Thalamus, after d5OT 80 IU IV, monkey #3 (F), perfused 149 min post-dose", "value": 3.85, "unit": "pg/mg"}, {"measurement": "BRAIN OT concentration (endogenous)", "setting": "Thalamus, after d5OT 80 IU IV, monkey #6 (F), perfused 135 min post-dose", "value": 28.34, "unit": "pg/mg"}, {"measurement": "Concentrations of endogenous brain oxytocin (OT)", "setting": "dPFC, 40 IN, monkey #5 (F)", "value": "1e-09", "unit": "M"}, {"measurement": "Concentrations of endogenous brain oxytocin (OT)", "setting": "dPFC, 80 IN, monkey #4 (M)", "value": "1e-09", "unit": "M"}, {"measurement": "Concentrations of endogenous brain oxytocin (OT)", "setting": "dPFC, 80 IV, monkey #3 (F)", "value": "2e-09", "unit": "M"}, {"measurement": "BRAIN OT concentration (endogenous)", "setting": "dPFC, after d5OT 40 IU IN, monkey #5 (F), perfused 138 min post-dose", "value": 0.16, "unit": "pg/mg"}, {"measurement": "BRAIN OT concentration (endogenous)", "setting": "dPFC, after d5OT 80 IU IN, monkey #4 (M), perfused 135 min post-dose", "value": 0.20, "unit": "pg/mg"}, {"measurement": "BRAIN OT concentration (endogenous)", "setting": "dPFC, after d5OT 80 IU IV, monkey #3 (F), perfused 149 min post-dose", "value": 0.27, "unit": "pg/mg"}, {"measurement": "BRAIN OT concentration (endogenous)", "setting": "mPFC, after d5OT 40 IU IN, monkey #1 (F), perfused 148 min post-dose", "value": 0.86, "unit": "pg/mg"}, {"measurement": "BRAIN OT concentration (endogenous)", "setting": "mPFC, after d5OT 40 IU IN, monkey #5 (F), perfused 138 min post-dose", "value": 0.88, "unit": "pg/mg"}, {"measurement": "BRAIN OT concentration (endogenous)", "setting": "mPFC, after d5OT 80 IU IN, monkey #4 (M), perfused 135 min post-dose", "value": 0.45, "unit": "pg/mg"}]}]}
